Twelve molecules from ChEMBL document CHEMBL3044782, “Structure-activity relationships of derivatives of fusapyrone, an antifungal metabolite of Fusarium semitectum” (J Agric Food Chem, 2004) can be followed below.

In brackets after ≈: the same amount, converted by molar mass. Activity calls are given as the source filed them. The calls are words filed in the database; no cut-off is given here.

Data set [1] relates to Botrytis cinerea. Kind of data set: Antifungal activity against Botryotinia fuckeliana ITEM-966 after 72 hr by broth dilution method. The class given is functional. Particulars: ITEM-966, 72 h. In general terms: In broth dilution the organism is exposed to a series of concentrations in liquid medium.
Another data set relates to Rhodotorula glutinis. Kind of data set: Antifungal activity against Rhodotorula glutinis assessed as growth inhibition at 50 ug/ml after 24 to 72 hr by broth dilution method. The class given is functional, organism-based.
Data set [2] relates to Botrytis cinerea. Kind of data set: Antifungal activity against Botryotinia fuckeliana ITEM-966 after 48 hr by broth dilution method. The class given is functional. To be noted: ITEM-966, 48 h.
Data set [3] has as its system Botrytis cinerea. Kind of data set: Antifungal activity against Botryotinia fuckeliana ITEM-966 after 24 hr by broth dilution method. The class given is functional. To be noted: ITEM-966, 24 h.
The test system of data set [4] is Meyerozyma guilliermondii. Kind of data set: Antifungal activity against Meyerozyma guilliermondii assessed as growth inhibition at 50 ug/ml after 24 to 72 hr by broth dilution method. The data set is classed as functional, organism-based.
Data set [5] can be described thus: Toxicity against Artemia salina (brine shrimp) larvae after 24 hr. The class given is organism-based. To be noted: in vivo.
Data set [6] has as its system Aspergillus parasiticus. Kind of data set: Antifungal activity against Aspergillus parasiticus Speare ITEM-11 after 24 hr by broth dilution method. The data set is classed as functional. To be noted: Speare ITEM-11, 24 h.
For data set [7], the system named is Penicillium brevicompactum. Kind of data set: Antifungal activity against Penicillium brevicompactum Dierckx ITEM-449 after 48 hr by broth dilution method. The data set is classed as functional. To be noted: Dierckx ITEM-449, 48 h.
Data set [8] relates to Penicillium brevicompactum. Kind of data set: Antifungal activity against Penicillium brevicompactum Dierckx ITEM-449 after 72 hr by broth dilution method. The class given is functional. Particulars: Dierckx ITEM-449, 72 h.
Data set [9] has as its system Penicillium brevicompactum. Kind of data set: Antifungal activity against Penicillium brevicompactum Dierckx ITEM-449 after 24 hr by broth dilution method. The data set is classed as functional. Particulars: Dierckx ITEM-449, 24 h.
Data set [10] concerns Aspergillus parasiticus. Kind of data set: Antifungal activity against Aspergillus parasiticus Speare ITEM-11 after 72 hr by broth dilution method. The class given is functional. To be noted: Speare ITEM-11, 72 h.
Data set [11] deals with Aspergillus parasiticus. Kind of data set: Antifungal activity against Aspergillus parasiticus Speare ITEM-11 after 48 hr by broth dilution method. The data set is classed as functional. To be noted: Speare ITEM-11, 48 h.

As for `CCCCCCC(C)CC(C)CC(CO)CC(C)CCC(O)C(C)(C)c1cc(O)c([C@@H]2O[C@H](CO)C[C@H](O)[C@H]2O)c(=O)o1` (stereo partly specified), the MIC in the data set on Botrytis cinerea [1], with Botrytis cinerea [2] and with Botrytis cinerea [3] was 50 µg/mL (≈ 81.6 µM) throughout. Besides, the “growth inhibition (GI)” value (in the data set with Rhodotorula glutinis; in data set [4]) was “inactive” each time.
Turning to `CCCCCCC(C)C/C(C)=C\C(CO)CC(C)CCC(O)C(C)(C)c1cc(O)c([C@@H]2O[C@H](CO)C[C@H](O)[C@H]2O)c(=O)o1` (stereo partly specified), the MIC against Botrytis cinerea [1], against Botrytis cinerea [2] and with Botrytis cinerea [3] was 50 µg/mL (≈ 81.9 µM) throughout. Moreover, the “growth inhibition (GI)” value (in the data set with Rhodotorula glutinis; in data set [4]) was “inactive” each time.
Consider `CCCCCCC(C)C/C(C)=C\C(/C=C(C)/C=C/C(O)C(C)(C)c1cc(OC)c([C@@H]2O[C@H](CO)C[C@H](O)[C@H]2O)c(=O)o1)CO` (stereo partly specified), for which the minimum inhibitory concentration (MIC) is 50 µg/mL (≈ 80.5 µM) against Botrytis cinerea [1], 50 µg/mL (≈ 80.5 µM) in the data set on Botrytis cinerea [2] and 25 µg/mL (≈ 40.3 µM) in the data set with Botrytis cinerea [3]. Also, the “growth inhibition (GI)” value (in the data set with Rhodotorula glutinis; in data set [4]) was “inactive” each time.
Regarding `CCCCCCC(C)C/C(C)=C\C(/C=C(C)/C=C/C(OC(C)=O)C(C)(C)c1cc(=O)c([C@@H]2O[C@H](COC(C)=O)C[C@H](OC(C)=O)[C@H]2OC(C)=O)c(OC)o1)COC(C)=O` (stereo partly specified), the “growth inhibition (GI)” value (in the data set with Rhodotorula glutinis; in [4]) was “inactive” throughout. This molecule also had an LC50 at 24 h in data set [5] of 51.9 µM.
Regarding `CCCCCCC(C)C/C(C)=C\C(/C=C(C)/C=C/C(OC(C)=O)C(C)(C)c1cc(OC)c([C@@H]2O[C@H](COC(C)=O)C[C@H](OC(C)=O)[C@H]2OC(C)=O)c(=O)o1)COC(C)=O` (stereo partly specified), the “growth inhibition (GI)” value (with Rhodotorula glutinis; in data set [4]) was “inactive” in each case. In data set [5], this molecule came in with an LC50 at 24 h of 46.1 µM.
Regarding `CCCCCCC(C)C/C(C)=C\C(C)/C=C(C)/C=C/C(OC(C)=O)C(C)(C)c1cc(OC(C)=O)c([C@@H]2O[C@H](COC(C)=O)C[C@H](OC(C)=O)[C@H]2OC(C)=O)c(=O)o1` (stereo partly specified), the “growth inhibition (GI)” value (in the data set with Rhodotorula glutinis; in data set [4]) was “inactive” in each case. For the same molecule, in [5], the LC50 at 24 h is 39.7 µM.
Consider `CCCCCCC(C)C/C(C)=C\C(/C=C(C)/C=C/C(OC(C)=O)C(C)(C)c1cc(OC(C)=O)c([C@@H]2O[C@H](COC(C)=O)C[C@H](OC(C)=O)[C@H]2OC(C)=O)c(=O)o1)COC(C)=O` (stereo partly specified), for which the “growth inhibition (GI)” value (in the data set with Rhodotorula glutinis; in data set [4]) was “inactive” in each case. The same molecule gave an LC50 at 24 h in data set [5] of 85.6 µM.
On to `CCCCCCC(C)C/C(C)=C\C(/C=C(C)/C=C/C(O)C(C)(C)c1cc(O)c(CCO)c(=O)o1)CO` (stereo unspecified), for which the “growth inhibition (GI)” value (in the data set on Rhodotorula glutinis; in data set [4]) was “inactive” throughout.
For `Nc1c(Cl)cc([N+](=O)[O-])cc1Cl` [ALLISAN], the MIC is 6.25 µg/mL (≈ 30.2 µM) in the data set on Botrytis cinerea [1]; above 25 µg/mL in the data set with Aspergillus parasiticus [6]; 25 µg/mL (≈ 121 µM) in data set [7]; above 25 µg/mL in data set [8]; 6.25 µg/mL (≈ 30.2 µM) in the data set with Botrytis cinerea [2]; 12.5 µg/mL (≈ 60.4 µM) in data set [9]. Moreover, the MIC in the data set on Aspergillus parasiticus [10] is above 25 µg/mL; against Botrytis cinerea [3], 3.12 µg/mL (≈ 15.1 µM); against Aspergillus parasiticus [11], above 25 µg/mL.
Take `CCCCNC(=O)n1c(NC(=O)OC)nc2ccccc21` [BENOMYL]: the minimum inhibitory concentration (MIC) in the data set with Botrytis cinerea [1] is 0.19 µg/mL (≈ 0.654 µM); against Aspergillus parasiticus [6] it was above 25 µg/mL; in [7], above 25 µg/mL; in data set [8] it was above 25 µg/mL; against Botrytis cinerea [2] it was 0.19 µg/mL (≈ 0.654 µM); in data set [9], above 25 µg/mL. The minimum inhibitory concentration (MIC) with Aspergillus parasiticus [10] was above 25 µg/mL; with Botrytis cinerea [3], 0.19 µg/mL (≈ 0.654 µM); in the data set with Aspergillus parasiticus [11], above 25 µg/mL.
As to `CCCCCCC(C)C/C(C)=C\C(C)/C=C(C)/C=C/C(O)C(C)(C)c1cc(O)c([C@@H]2O[C@H](CO)C[C@H](O)[C@H]2O)c(=O)o1` (stereo partly specified) [DEOXYNEOFUSAPYRONE], the MIC in the data set on Botrytis cinerea [1] was 1.56 µg/mL (≈ 2.64 µM); in the data set on Aspergillus parasiticus [6], 0.78 µg/mL (≈ 1.32 µM); in [7] it was 1.56 µg/mL (≈ 2.64 µM); in data set [8] it was 1.56 µg/mL (≈ 2.64 µM); against Botrytis cinerea [2], 1.56 µg/mL (≈ 2.64 µM); in data set [9], 0.78 µg/mL (≈ 1.32 µM). The MIC in the data set with Aspergillus parasiticus [10], with Botrytis cinerea [3] and in the data set on Aspergillus parasiticus [11] was 0.78 µg/mL (≈ 1.32 µM) in each case. Also, the “growth inhibition (GI)” value (in the data set on Rhodotorula glutinis; in data set [4]) was “inactive” throughout. In data set [5], this molecule registered an LC50 at 24 h of 37.1 µM.
Turning to `CCCCCCC(C)C/C(C)=C\C(/C=C(C)/C=C/C(O)C(C)(C)c1cc(O)c([C@@H]2O[C@H](CO)C[C@H](O)[C@H]2O)c(=O)o1)CO` (stereo partly specified) [Fusapyrone], the MIC against Botrytis cinerea [1] is 6.25 µg/mL (≈ 10.3 µM); in the data set on Aspergillus parasiticus [6], 6.25 µg/mL (≈ 10.3 µM); in [7] it was 3.12 µg/mL (≈ 5.14 µM); in [8] it was 6.25 µg/mL (≈ 10.3 µM); in the data set with Botrytis cinerea [2], 3.12 µg/mL (≈ 5.14 µM); in data set [9], 0.78 µg/mL (≈ 1.29 µM). In addition, the minimal inhibitory concentration (MIC) came out at 12.5 µg/mL (≈ 20.6 µM) against Aspergillus parasiticus [10], 1.56 µg/mL (≈ 2.57 µM) with Botrytis cinerea [3] and 6.25 µg/mL (≈ 10.3 µM) in the data set with Aspergillus parasiticus [11]. Moreover, the “growth inhibition (GI)” value (with Rhodotorula glutinis; in [4]) was “inactive” each time. The LC50 at 24 h in data set [5] was above 200 µM.

Broadly, the MIC is the least concentration at which growth counts as inhibited. As usually defined, the LC50 is the concentration lethal to half of the exposed cells or organisms. High values mean lower toxicity, low ones greater toxicity.
